Measured values taken from ChEMBL document CHEMBL1142263, “Structural analogs of tylophora alkaloids may not be functional analogs” (Bioorg Med Chem Lett, 2008).
Active and inactive are the calls of the source. The rule behind the calls is not given here.

What was measured:
[1] = Inhibition of GRE-mediated transcription in human HepG cells; assay type: cell-based
PANC-1 = assay: Growth inhibition of human PANC1 cells; assay type: functional
[2] = Inhibition of CRE-mediated transcription in human HepG cells; assay type: cell-based
CCRF-CEM = assay: Growth inhibition of human CEM cells; assay type: functional
[3] = Growth inhibition of human HepG cells; assay type: functional
[4] = Inhibition of AP1-mediated transcription in human HepG cells; assay type: cell-based
[5] = Inhibition of NF-kappaB-mediated transcription in human HepG cells; assay type: cell-based
[6] = Ratio of IC50 for NF-kappaB-mediated transcription in human HepG cells to GI50 for human HepG2 cells; assay type: functional
[7] = Ratio of IC50 for AP1-mediated transcription in human HepG cells to GI50 for human HepG2 cells; assay type: functional
[8] = Ratio of IC50 for GRE-mediated transcription in human HepG cells to GI50 for human HepG2 cells; assay type: functional
[9] = Ratio of IC50 for CRE-mediated transcription in human HepG cells to GI50 for human HepG2 cells; assay type: functional
HepG [10] = assay: Inhibition of RNA synthesis in human HepG cells; assay type: functional, cell-based
HepG [11] = assay: Inhibition of protein synthesis in human HepG cells; assay type: functional, cell-based
HepG [12] = assay: Inhibition of DNA synthesis in human HepG cells; assay type: functional, cell-based

| SMILES | IC50 [1] [µM] | GI50 (PANC-1) [µM] | IC50 [2] [µM] | GI50 (CCRF-CEM) [µM] | GI50 [3] [µM] | IC50 [4] [µM] | IC50 [5] [µM] | Activity [6] | Activity [7] | Activity [8] | Activity [9] | Activity (HepG [10]) | Activity (HepG [11]) | Activity (HepG [12]) | Ratio [6] |
| --- | --- | --- | --- | --- | --- | --- | --- | --- | --- | --- | --- | --- | --- | --- | --- |
| COc1cc2c3c(c4cc(OC)c(OC)cc4c2cc1OC)CN1CCC[C@@H]1C3 [TYLOPHORINE] | 0.534 | 0.029 | 7.91 | 0.067 | 0.033 | 2.26 | 0.317 |  |  |  |  |  |  |  |  |
| COc1ccc2cc(C[C@H]3CCCCN3)c3cc(OC)c(OC)cc3c2c1 | 4.5 | 0.904 | 12 | 0.567 | 1.72 | 9.78 | 2.17 | 1.3 | 5.7 | 2.6 | 7 | Dose-dependent effect | Dose-dependent effect | Dose-dependent effect |  |
| COc1ccc2c(CN3CCCC[C@H]3C(=O)O)cc3cc4c(cc3c2c1)OCO4 | 7.2 | 2.3 | 12.1 | 1.7 | 3 | 6.2 | 7 |  |  |  |  |  |  |  |  |
| COc1ccc2c(CN3CCC[C@H]3CO)cc3cc4c(cc3c2c1)OCO4 | 19 | 6.2 | 24 | 2.7 | 5.4 | > 30 | 21 |  |  |  |  | Active | inactive | Dose-dependent effect |  |
| COc1ccc2c3c(c4cc(OC)c(OC)cc4c2c1)CC1CCCCN1C3 (racemic) | 0.01 | 0.0005 | 0.025 | 0.002 | 0.0015 | 0.0186 | 0.0014 |  |  |  |  |  |  |  |  |
| COc1ccc2c(CN3CCC[C@H]3C(=O)O)cc3cc4c(cc3c2c1)OCO4 | > 30 | 7.4 | 25 | 6.2 | 8.6 | 27 | 23.5 |  |  |  |  |  |  |  |  |
| COc1ccc2cc(C)c3cc(OC)c(OC)cc3c2c1 | > 15 | > 10 | > 15 | > 2 | > 10 | > 15 | > 10 |  |  |  |  |  |  |  |  |
| COc1ccc2c(CNCCCCCO)cc3cc4c(cc3c2c1)OCO4 | 9.2 | 2.2 | 8.6 | 2 | 2.3 | 8.7 | 7.9 |  |  |  |  |  |  |  |  |
| COc1cc2c3c(c4cc(OC)c(OC)cc4c2cc1OC)CN1CCC[C@H]1C3 [(S)-TYLOPHORINE] | 0.229 | 0.012 | > 0.3 | 0.015 | 0.011 | > 0.3 | 0.041 |  |  |  |  |  |  |  |  |
| COc1ccc2c3c(c4cc5c(cc4c2c1)OCO5)C[C@H]1CCCN1C3 | 2.44 | 0.156 | 2.57 | 0.323 | 0.371 | 3.38 | 1.24 |  |  |  |  |  | Active | Dose-dependent effect |  |
| COc1ccc2c3c(c4cc(OC)c(OC)cc4c2c1)C[C@H]1CCCN1C3 [(-)-ANTOFINE] | 0.024 | 0.0022 | 0.167 | 0.0052 | 0.0049 | 0.135 | 0.0073 |  | 28 | 4.9 | 34 | inactive | Active | Dose-dependent effect | 1.5 |
| COc1ccc2c(CN3CCCC[C@H]3CO)cc3cc4c(cc3c2c1)OCO4 | 20.7 | 2.3 | 18.5 | 1.6 | 3.1 | 10 | 10.2 |  |  |  |  |  |  |  |  |
